Results reported in BindingDB's records for doi:10.1016/j.bmc.2018.11.013 (Csir-Indian Institute of Integrative Medicine, 2018).

Assay: Inhibition of human CYP1A1 expressed in HEK293 cells assessed as reduction in CYP1A1 mediated B[alpha]P-7,8- dihydrodiol induced-toxicity by measuring EC50 at 3 times of IC50 concentration by MTT assay (Rvb = 1.4 +/ 0.4 uM)

Structure (SMILES) | EC50 [µM]
O=c1cc(-c2ccccc2)oc2c1ccc1occc12 [LANCEOLATIN B] | 14.4
COc1c(C(=O)/C=C(\O)c2ccccc2)ccc2occc12 [Pongamol] | 10.2
COc1c(-c2ccc3c(c2)OCO3)oc2c(ccc3occc32)c1=O [Pongapin] | 14.8
